The values below come from PubChem BioAssay AID1259408 (Genetic Toxicology Data Bank (GENE-TOX), 2018).

Molecules are shown by their SMILES. Calls of active or inactive are those of the source. No rule for the calls is given here.

This data set has as its system GENE-TOX genotoxicity assays, various organisms and cells. The data set is described as follows: GENE-TOX mutagenicity studies. Particulars: for call: Assay Type: In vivo carcinogenicity studies.
Where [1] appears, read: Species/Cell Type: Syrian hamster embryo (SHE) cells, Assay Type: Cell transformation, clonal assay, Assay Code: CTCT, Evaluation Type: Evaluation A (Pre-1980).
Setting [2] is: Species/Cell Type: Drosophila melanogaster, Assay Type: Sex-linked recessive lethal gene mutation, Assay Code: SRLT, Evaluation Type: Evaluation A (Pre-1980).
Setting [3] is: Species/Cell Type: Salmonella typhimurium (one or more of the five standard strains: TA98, TA100, TA1535, TA1537, and TA1538), Assay Type: Histidine reverse gene mutation, Ames assay, Assay Code: SALT, Evaluation Type: Evaluation A (Pre-1980).
[4] abbreviates: Species/Cell Type: Bacillus subtilis (H17 vs M45), Assay Type: Rec-assay, spot test, DNA effects (bacterial DNA repair), Assay Code: REW+, Evaluation Type: Evaluation A (Pre-1980).
[5] abbreviates: Species/Cell Type: Salmonella typhimurium (one or more of the five standard strains: TA98, TA100, TA1535, TA1537, and TA1538), Assay Type: Histidine reverse gene mutation, Ames assay, Assay Code: SAL+*, Activation: With metabolic activation, Evaluation Type: Evaluation A (Pre-1980).
Where [6] appears, read: Species/Cell Type: Mammalian polychromatic erythrocytes, Assay Type: Micronucleus test, chromosome aberrations, Assay Code: MNTT, Evaluation Type: Evaluation A (Pre-1980).
[7] abbreviates: Species/Cell Type: Mouse, Sex: Male, Assay Type: Sperm morphology, Assay Code: SPI-, Evaluation Type: Evaluation A (Pre-1980).
Setting [8] is: Species/Cell Type: Neurospora crassa, Assay Type: Forward gene mutation, Assay Code: NEF+, Evaluation Type: Evaluation A (Pre-1980).
Setting [9] is: Species/Cell Type: Salmonella typhimurium (one or more of the five standard strains: TA98, TA100, TA1535, TA1537, and TA1538), Assay Type: Histidine reverse gene mutation, Ames assay, Assay Code: SAL+, Evaluation Type: Evaluation A (Pre-1980).
Where [10] appears, read: Species/Cell Type: Nonhuman, Assay Type: Sister-chromatid exchange (SCE) in vitro, Assay Code: SC2-, Evaluation Type: Evaluation B (Post-1980).

As to `Oc1cc2cc3c(ccc4ccccc43)cc2c2ccccc12`, the mutagenic call is “active; positive” (Species/Cell Type: Chinese hamster lung (V79) cells, Assay Type: Forward gene mutation at the HPRT or ouabain locus, Assay Code: V79+, Evaluation Type: Evaluation A (Pre-1980)); “inactive; negative” (Species/Cell Type: Mouse prostate cells, Assay Type: Cell transformation, Assay Code: CTM-, Evaluation Type: Evaluation A (Pre-1980)); “no conclusion” under setting [1].

Regarding `CC(=O)N(OS(=O)(=O)O)c1ccc2c(c1)Cc1ccccc1-2`, under setting [2], the mutagenic call was “no conclusion”.

For `BrC(Br)Br`, the mutagenic call (Species/Cell Type: Human lymphocytes, Assay Type: Sister-chromatid exchange (SCE) in vitro, Assay Code: SCL+D, Dose Response: With dose response, Evaluation Type: Evaluation B (Post-1980)) is “active; positive”; the mutagenic call (Species/Cell Type: Human, Assay Type: Sister-chromatid exchange (SCE) in vitro, Assay Code: SC1+D, Dose Response: With dose response, Evaluation Type: Evaluation B (Post-1980)) was “active; positive”; the mutagenic call (Species/Cell Type: Nonhuman, Assay Type: Sister-chromatid exchange (SCE) in vitro, Assay Code: SC2+D, Dose Response: With dose response, Evaluation Type: Evaluation B (Post-1980)) was “active; positive”; the mutagenic call (Species/Cell Type: Nonhuman, Assay Type: Sister-chromatid exchange (SCE) in vivo, Assay Code: SC3+D, Dose Response: With dose response, Evaluation Type: Evaluation B (Post-1980)) is “active; positive”.

As to `O[C@@H]1C=Cc2cc3ccc4cccc5ccc(c2[C@H]1O)c3c45`, the mutagenic call is “inactive; negative” (Species/Cell Type: Chinese hamster lung (V79) cells, Assay Type: Forward gene mutation at the HPRT or ouabain locus, Assay Code: V79-*, Activation: With metabolic activation, Evaluation Type: Evaluation A (Pre-1980)); “active; positive” (Species/Cell Type: Nonhuman, Assay Type: Sister-chromatid exchange (SCE) in vitro, Assay Code: SC2+, Evaluation Type: Evaluation A (Pre-1980)); “no conclusion” under setting [3]; “no conclusion” under setting [1]. For the same compound, the call (Species/Cell Type: Nonhuman, Assay Code: CCGT, Evaluation Type: Evaluation A (Pre-1980)) was “no conclusion”.

Regarding `[Cl][Pt-2]([Cl])([Cl])([Cl])([Cl])[Cl]`, under setting [4], the mutagenic call was “active; positive”.

With `C=CCNC(=O)OC1(SC)C(=O)c2ccccc2C1=O`, the mutagenic call (Species/Cell Type: Salmonella typhimurium, Assay Type: Forward and reverse gene mutation, host-mediated assay, Assay Code: HMAT, Evaluation Type: Evaluation A (Pre-1980)) is “no conclusion”.

As to `CC(C)N(C(=O)SCC(Cl)=C(Cl)Cl)C(C)C`, the mutagenic call under setting [5] is “active; positive”.

Regarding `CCCCc1nc(Cl)c(CO)n1Cc1ccc(-c2ccccc2-c2nnn[nH]2)cc1`, the mutagenic call is “no conclusion” under setting [2] and “no conclusion” (Species/Cell Type: Drosophila melanogaster, Sex: Male, Assay Type: Heritable translocation test, chromosome aberrations, Assay Code: DHTT, Evaluation Type: Evaluation A (Pre-1980)).

`Cc1ccc2cccnc2c1`: the mutagenic call under setting [5] was “active; positive”.

Turning to `O=C1CCO1`, the mutagenic call is, setting by setting: (Species/Cell Type: Allium cepa, Assay Type: Chromosome aberrations, Assay Code: ALC+, Evaluation Type: Evaluation A (Pre-1980)) “active; positive”; (Species/Cell Type: Chinese hamster ovary (CHO) cells, Assay Type: Forward gene mutation at the HPRT locus, Assay Code: CHO+, Evaluation Type: Evaluation B (Post-1980)) “active; positive”; (Species/Cell Type: Drosophila melanogaster, Assay Type: Sex-linked recessive lethal gene mutation, Assay Code: SRL+, Evaluation Type: Evaluation A (Pre-1980)) “active; positive”; (Species/Cell Type: Drosophila melanogaster, Sex: Male, Assay Type: Heritable translocation test, chromosome aberrations, Assay Code: DHT+, Evaluation Type: Evaluation A (Pre-1980)) “active; positive”; (Species/Cell Type: Escherichia coli polA (W3119 vs P3478), Assay Type: Rec-assay, DNA effects (bacterial DNA repair), Assay Code: RE1+, Evaluation Type: Evaluation A (Pre-1980)) “active; positive”; (Species/Cell Type: Human diploid fibroblasts, Assay Type: Unscheduled DNA synthesis (UDS) in vitro, DNA effects, Assay Code: UDH+, Evaluation Type: Evaluation A (Pre-1980)) “active; positive”. Also, the mutagenic call by setting is: under setting [6], “no conclusion”; (Species/Cell Type: Mouse lymphoma (L5178Y) cells, Assay Type: Forward gene mutation at the thymidine kinase (TK) locus, chromosome aberrations, Assay Code: L51+, Evaluation Type: Evaluation A (Pre-1980)) “active; positive”; under setting [7], “inactive; negative”; under setting [8], “active; positive”; (Species/Cell Type: Neurospora crassa, Assay Type: Reverse gene mutation, Assay Code: NER+, Evaluation Type: Evaluation A (Pre-1980)) “active; positive”; (Species/Cell Type: Nonhuman, Assay Type: Sister-chromatid exchange (SCE) in vitro, Assay Code: SC2+D, Dose Response: With dose response, Evaluation Type: Evaluation A (Pre-1980)) “active; positive”. In addition, the mutagenic call is “active; positive” (Species/Cell Type: Saccharomyces cerevisiae, Assay Type: Mitotic recombination or gene conversion, Assay Code: YEC+, Evaluation Type: Evaluation A (Pre-1980)); “active; positive” (Species/Cell Type: Saccharomyces cerevisiae, Assay Type: Mitotic recombination or gene conversion, Assay Code: YEH+, Evaluation Type: Evaluation A (Pre-1980)); “active; positive” (Species/Cell Type: Saccharomyces cerevisiae, Assay Type: Reverse gene mutation, Assay Code: YER+, Evaluation Type: Evaluation A (Pre-1980)); “active; positive” under setting [9]; “active; positive” (Species/Cell Type: Salmonella typhimurium, Assay Type: Forward and reverse gene mutation, host-mediated assay, Assay Code: HMA+, Evaluation Type: Evaluation A (Pre-1980)); “active; positive” (Species/Cell Type: Syrian hamster embryo (SA7/SHE) cells, Assay Type: Cell transformation, viral enhanced, Assay Code: CT7+, Evaluation Type: Evaluation A (Pre-1980)). Further, the mutagenic call is, setting by setting: (Species/Cell Type: Syrian hamster embryo (SHE) cells, Assay Type: Cell transformation, focus assay, Assay Code: CTF+, Evaluation Type: Evaluation A (Pre-1980)) “active; positive”; (Species/Cell Type: Vicia faba, Assay Type: Chromosome aberrations, Assay Code: VIC+, Evaluation Type: Evaluation A (Pre-1980)) “active; positive”. Where the note is “Species/Cell Type: Nonhuman, Assay Code: CCG+, Evaluation Type: Evaluation A (Pre-1980)”, the call was “active; positive”.

As to `CCCCI`, under “Species/Cell Type: Escherichia coli polA (W3119 vs P3478), Assay Type: Rec-assay, DNA effects (bacterial DNA repair), Assay Code: RE1T, Evaluation Type: Evaluation A (Pre-1980)”, the mutagenic call is recorded as “no conclusion”.

For the compound `Nc1nc(NO)c2[nH]cnc2n1`, the mutagenic call (Species/Cell Type: Escherichia coli WP2, Assay Type: Tryptophan reverse gene mutation, Assay Code: WP2T, Evaluation Type: Evaluation A (Pre-1980)) is recorded as “no conclusion”; the mutagenic call (Species/Cell Type: Escherichia coli WP2 UVRA, Assay Type: Tryptophan reverse gene mutation, Assay Code: WPUT, Evaluation Type: Evaluation A (Pre-1980)) is recorded as “no conclusion”; the mutagenic call under setting [8] is “active; positive”.

For the compound `O=[N+]([O-])c1ccnc2ccccc12`, the mutagenic call (Species/Cell Type: Escherichia coli polA (W3119 vs P3478), Assay Type: Rec-assay, DNA effects (bacterial DNA repair), Assay Code: RE1-, Evaluation Type: Evaluation A (Pre-1980)) was “inactive; negative”.

In the case of `O=C(O)C(=O)c1ccc(Cl)cc1`, under setting [10], the mutagenic call is “inactive; negative”.

In the case of `O=[N+]([O-])c1ccc(-c2nc(NCC(O)CO)c3ccccc3n2)s1` (stereo unspecified), under setting [3], the mutagenic call is given as “no conclusion”.

For `O=[N+]([O-])c1ccc(SSc2ccc([N+](=O)[O-])cc2)cc1`, under setting [9], the mutagenic call is “active; positive”.

For the compound `O=[Te](=O)(O)O`, the mutagenic call reads like this: under setting [4], “active; positive”; (Species/Cell Type: Bacillus subtilis (H17 vs M45), Assay Type: Rec-assay, spot test, DNA effects (bacterial DNA repair), Assay Code: REW-, Evaluation Type: Evaluation A (Pre-1980)) “inactive; negative”.

For the compound `[O]=[Zr]`, the mutagenic call under setting [10] is “inactive; negative”.

On to `O=S(=O)(O)NC1CCCCC1`, for which the mutagenic call is “inactive; negative” (Species/Cell Type: Drosophila melanogaster, Assay Type: Aneuploidy, sex chromosome gain, chromosome aberrations, Assay Code: DAG-F, Evaluation Type: Evaluation A (Pre-1980)); “inactive; negative” (Species/Cell Type: Drosophila melanogaster, Assay Type: Aneuploidy, whole sex chromosome loss, chromosome aberrations, Assay Code: DAC-F, Evaluation Type: Evaluation A (Pre-1980)); “no conclusion” under setting [2]; “no conclusion” (Species/Cell Type: Mammalian germ cells, Sex: Male, Assay Type: Chromosome aberrations in vivo, Assay Code: CY9T, Evaluation Type: Evaluation A (Pre-1980)); “no conclusion” under setting [6]; “inactive; negative” under setting [7]. The mutagenic call is “no conclusion” (Species/Cell Type: Nonhuman bone marrow, Assay Type: Chromosome aberrations, in vivo, Assay Code: CY#T, Evaluation Type: Evaluation A (Pre-1980)); “inactive; negative” (Species/Cell Type: Rodents, Sex: Female, Assay Type: Dominant lethal test, Assay Code: DLTF-, Evaluation Type: Evaluation A (Pre-1980)); “inactive; negative” (Species/Cell Type: Rodents, Sex: Male, Assay Type: Dominant lethal test, Assay Code: DLT-, Evaluation Type: Evaluation A (Pre-1980)); “inactive; negative” (Species/Cell Type: Salmonella typhimurium, Serratia marcesens, Assay Type: Forward and reverse gene mutation, host-mediated assay, Assay Code: HM2-, Evaluation Type: Evaluation A (Pre-1980)).
